Measured values from PMC9790248, “Effects of CYP3A Inhibition, CYP3A Induction, and Gastric Acid Reduction on the Pharmacokinetics of Ripretinib, a Switch Control KIT Tyrosine Kinase Inhibitor” (Clinical Pharmacology in Drug Development, 2022).

Key:
hepatocytes = system: hepatocytes; design: method as in PMID 31085175; details: cited from earlier work
CYP2C19 = CYP2C19 (Homo sapiens, UniProt P33261); assay: Incubation with recombinant human CYPs, substrate disappearance; assay type: in vitro ADME; details: data on file
Sequence of CYP2C19 (P33261 whole entry, canonical isoform): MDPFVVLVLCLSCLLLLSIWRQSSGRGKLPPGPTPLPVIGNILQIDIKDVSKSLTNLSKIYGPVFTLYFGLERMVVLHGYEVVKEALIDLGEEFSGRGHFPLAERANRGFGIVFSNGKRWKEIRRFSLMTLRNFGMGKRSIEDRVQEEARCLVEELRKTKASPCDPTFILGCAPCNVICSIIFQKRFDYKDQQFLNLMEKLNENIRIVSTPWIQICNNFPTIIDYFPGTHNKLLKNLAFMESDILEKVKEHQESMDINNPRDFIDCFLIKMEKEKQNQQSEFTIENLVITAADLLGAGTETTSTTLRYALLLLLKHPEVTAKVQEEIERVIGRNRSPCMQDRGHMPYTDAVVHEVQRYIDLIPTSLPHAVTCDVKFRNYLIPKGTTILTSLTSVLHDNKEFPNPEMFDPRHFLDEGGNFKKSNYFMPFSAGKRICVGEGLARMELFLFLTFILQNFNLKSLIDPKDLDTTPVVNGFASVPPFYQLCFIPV
Protocol: (§1) In vitro studies with recombinant human cytochrome P450 isoforms (CYPs) and human liver microsomes (with chemical inhibitors) indicate that CYP3A4/5 plays a major role in the metabolism of ripretinib (data on file). When incubated with a panel of recombinant human CYPs, ripretinib (0.1 or 1 μM) disappeared in the presence of CYP3A4 (87.8%–100%), CYP2D6 (97.7%–100%), CYP2C8 (71.2% and 18.9%, respectively), and CYP2C19 (15.7% and 6.7%, respectively).

CYP2B6 = biological target: T1, CYP2B6 (Homo sapiens, UniProt P20813); assay: as above; assay type: in vitro ADME; details: ripretinib 0.1 or 1 μM, data on file
T1 sequence (P20813 1-491): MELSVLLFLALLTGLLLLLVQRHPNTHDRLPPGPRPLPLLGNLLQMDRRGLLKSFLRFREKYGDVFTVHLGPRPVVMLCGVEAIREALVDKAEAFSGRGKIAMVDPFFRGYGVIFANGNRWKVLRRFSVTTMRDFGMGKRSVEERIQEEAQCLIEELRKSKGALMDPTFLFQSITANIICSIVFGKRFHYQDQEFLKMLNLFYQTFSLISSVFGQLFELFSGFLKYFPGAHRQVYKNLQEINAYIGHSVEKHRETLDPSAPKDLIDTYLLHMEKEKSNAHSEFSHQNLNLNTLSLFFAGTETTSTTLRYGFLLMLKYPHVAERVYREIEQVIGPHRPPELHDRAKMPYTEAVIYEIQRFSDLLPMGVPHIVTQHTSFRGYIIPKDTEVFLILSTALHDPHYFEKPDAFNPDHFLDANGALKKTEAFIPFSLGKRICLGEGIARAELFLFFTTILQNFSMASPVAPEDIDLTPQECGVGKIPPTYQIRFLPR
Protocol: as §1

CYP2D6 [1] = biological target: T2, CYP2D6 (Homo sapiens, UniProt P10635); assay: as above; assay type: in vitro ADME; details: ripretinib 0.1 or 1 μM, data on file
T2 construct: with human liver microsomes (0.5 mg protein/mL) for 30 minutes; from tissue; host or cells: human liver microsomes
T2 sequence (P10635 whole entry): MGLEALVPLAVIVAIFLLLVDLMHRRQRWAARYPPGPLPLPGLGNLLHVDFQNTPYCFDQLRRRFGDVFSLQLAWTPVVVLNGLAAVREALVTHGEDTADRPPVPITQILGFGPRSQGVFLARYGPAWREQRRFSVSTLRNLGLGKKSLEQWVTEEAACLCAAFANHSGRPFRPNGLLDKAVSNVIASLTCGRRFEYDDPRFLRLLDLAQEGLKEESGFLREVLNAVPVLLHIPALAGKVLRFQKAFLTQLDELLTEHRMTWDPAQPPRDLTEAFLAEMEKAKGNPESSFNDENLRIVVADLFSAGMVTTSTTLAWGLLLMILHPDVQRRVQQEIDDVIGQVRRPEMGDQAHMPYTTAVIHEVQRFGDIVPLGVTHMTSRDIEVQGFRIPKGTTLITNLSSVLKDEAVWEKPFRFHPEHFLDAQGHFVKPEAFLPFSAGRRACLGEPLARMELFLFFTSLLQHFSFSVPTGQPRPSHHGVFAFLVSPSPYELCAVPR
Protocol: as §1

[2] = Safety assessment (TEAEs), rifampin study; assay type: in vivo, human
Protocol: Participants were confined to the study center from days −1 through 22 for the collection of plasma PK samples and all study procedures. Participants received an oral dose of ripretinib 100 mg on day 1 under fasting conditions; a higher dose of ripretinib was used than in the itraconazole or pantoprazole study due to the potential for decreased ripretinib exposure when coadministered with a strong CYP3A inducer (Figure 1B). On day 8, participants received oral doses of rifampin 600 mg once daily 1 hour before a meal with a full glass of water for 14 consecutive days through day 21. On day 18, participants received a second dose of ripretinib 100 mg administered simultaneously with rifampin 600 mg under fasting conditions. Blood samples for PK analysis were collected at predose and 1, 2, 3, 4, 5, 8, 10, 12, 24, 36, 48, 72, and 96 hours after administration of ripretinib on days 1 and 18. Safety was assessed throughout the study period and with a follow‐up phone call on day 29 or 7 days after discontinuation in the case of early withdrawal.
Relationship to study drug was assessed by the investigator.
Safety data were summarized as n (%).

[3] = Concentration-corrected QT interval analysis; assay type: in vivo; details: across a range of plasma concentration; data on file
Protocol: In the current study, itraconazole was administered as an oral solution on an empty stomach to ensure the highest oral absorption under fasting conditions and minimize gastrointestinal tract irritation during fasting. […] The tolerability of higher exposure is supported by previous safety and PK data.[7], [10] In a phase 1 study of ripretinib in patients with cancer, the maximum tolerated dose was not reached with doses up to ripretinib 200 mg twice daily.[7] Dose escalation to ripretinib 150 mg twice daily was offered to patients in a phase 1 and phase 3 clinical study after radiologic disease progression on 150 mg once daily.[7], [11] […] Steady‐state PK exposure following ripretinib 150 mg twice daily was approximately 2‐fold higher compared with ripretinib 150 mg once daily.[7], [10] […] However, the exposure–safety relationships were relatively shallow, and most AEs were Grades 1 and 2.

CYP2C8 = biological target: T3, CYP2C8 (Homo sapiens, UniProt P10632); assay: Human liver microsomes with chemical inhibitors; assay type: in vitro ADME; details: metabolism-dependent inhibitor gemfibrozil glucuronide
T3 sequence (P10632 1-490): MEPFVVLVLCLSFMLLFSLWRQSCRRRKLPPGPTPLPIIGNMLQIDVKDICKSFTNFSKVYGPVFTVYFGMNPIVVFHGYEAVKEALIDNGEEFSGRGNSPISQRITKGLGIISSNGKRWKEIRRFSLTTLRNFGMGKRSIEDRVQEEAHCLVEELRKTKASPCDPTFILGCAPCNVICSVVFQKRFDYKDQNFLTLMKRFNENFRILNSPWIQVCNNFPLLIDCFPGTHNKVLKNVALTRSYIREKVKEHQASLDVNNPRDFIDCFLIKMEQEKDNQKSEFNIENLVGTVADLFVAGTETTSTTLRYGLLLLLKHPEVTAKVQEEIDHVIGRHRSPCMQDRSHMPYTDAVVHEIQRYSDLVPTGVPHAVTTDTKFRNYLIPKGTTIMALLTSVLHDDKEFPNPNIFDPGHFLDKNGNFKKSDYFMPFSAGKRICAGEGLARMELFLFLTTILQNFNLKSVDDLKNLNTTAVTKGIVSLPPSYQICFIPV
Protocol: as §1

CYP3A4/5 = assay: Human liver microsomes with chemical inhibitors; assay type: in vitro ADME
Protocol: as §1

CYP2D6 [4] = biological target: T2, CYP2D6; assay: Human liver microsomes with chemical inhibitors; assay type: in vitro ADME
Protocol: as §1

CCn1c(=O)c(-c2cc(NC(=O)Nc3ccccc3)c(F)cc2Br)cc2cnc(NC)cc21 [Ripretinib]
Major metabolic pathway (hepatocytes): N‐demethylation
Substrate disappearance (CYP2C19; ripretinib 0.1 μM): 15.7%
Substrate disappearance (CYP2C19; ripretinib 1 μM): 6.7%
Substrate disappearance (CYP2B6): less than 7%
Substrate disappearance (CYP2D6 [1]): 97.7%–100%
Number of TEAEs assessed as related to study drug ([2]; human, in vivo, 21 days): 78
Participants with TEAEs assessed as related to study drug per the investigator ([2]; human, in vivo, 21 days): 23 (95.8%) n (%)
Total number of TEAEs ([2]; human, in vivo, 21 days): 94
Deaths and serious AEs ([2]; rifampin study, N = 24): No deaths or SAEs occurred
Concentration-corrected QT interval analysis [3]: did not suggest particular concern
Inhibition of metabolism of ripretinib on inhibition of CYP2C8 (CYP2C8): 24%
Inhibition of metabolism of ripretinib on inhibition of CYP3A4/5 (CYP3A4/5; human liver microsomes, metabolism-dependent inhibitor troleandomycin): 79%
Role of CYP3A4/5 in metabolism (CYP3A4/5; recombinant human CYPs and human liver microsomes with chemical inhibitors, data on file): major role
Decrease in metabolism of ripretinib on inhibition of CYP3A4/5 (CYP3A4/5; ripretinib 0.1 μM, human liver microsomes 0.5 mg protein/mL, 30 minutes, with ketoconazole): up to 63%
Inhibition of metabolism of ripretinib on inhibition of CYP2D6 (CYP2D6 [4]; human liver microsomes, metabolism-dependent inhibitor paroxetine): 16%
Decrease in metabolism of ripretinib on inhibition of CYP2D6 (CYP2D6 [4]; ripretinib 0.1 μM, human liver microsomes 0.5 mg protein/mL, 30 minutes, with quinidine): ≤ 26%
